{
  "source": "paper PMC4057667",
  "about": "“Study on Biopharmaceutics Classification and Oral Bioavailability of a Novel Multikinase Inhibitor NCE for Cancer Therapy” (International Journal of Molecular Sciences, 2014)",
  "key": {"[1]": {"test": "Solubility with sodium dodecyl sulfate (SDS) added", "type": "physicochemical", "conditions": "aqueous with cosolvent or surfactant or cyclodextrin", "protocol": "Intrinsic dissolution ratio is defined as the dissolution rate of a pure drug substance under the condition of constant surface area, agitation or stirring speed, pH and ionic strength of the dissolution medium. As a rate characterization, IDR data has a good correlation with in vivo drug dissolution rate. […] Three different SDS concentrations were tested. The solubilities of NCE were 54.46 (0.4% SDS), 131.83 (1% SDS) and 255.91 (2% SDS) μg/mL. The volume of the release medium in this experiment was 900 mL, thus the introduction of 1% SDS into the medium was enough to achieve sink condition.\nThe concentration of NCE in perfusion buffer containing 0.4% SDS was high enough to conduct the following intestinal permeability study. Additionally, according to preliminary experiments, SDS with concentrations higher than 1% would be toxic to rats."}, "[2]": {"test": "Pharmacokinetic study in beagle dogs", "type": "in vivo", "conditions": "30 mg/kg; for AUC(0-t) / Cmax / MRT / Tmax / half-life / bioavailability: beagle, dog, plasma", "protocol": "Six healthy beagle dogs (7.97 ± 0.73 kg) were randomly assigned into two groups. NCE was given to the dogs by intragastrical (i.g.) and intravenous (i.v.) administration at a dosage of 30 mg/kg. Blood was collected from the forelimb vein of the dogs at 0.25, 0.5, 0.75, 1, 2, 3, 4, 6, 8, 10, 12 and 24 h. Plasma samples were obtained by centrifuging blood at 3000 rpm for 10 min and were stored at −20 °C. Before analysis, acetonitrile was added into the plasma and the mixture was vortexed for 5 min to precipitate the protein. Then, the samples were centrifuged for 10 min at a speed of 1.3 × 10^4 rpm. The supernatant was collected and the solvent was removed by pressure blowing concentrator. Then, mobile phase was added to dissolve the residual. The concentrations of NCE in plasma were determined by HPLC.\nThe pharmacokinetic parameters were calculated using the pharmacokinetics-intelligent analysis module of DAS 2.1.1 software. Total areas under the concentration-time curve (AUC) after i.g. and i.v. administration were determined by extrapolation from time 0−t (AUC0−t), respectively. The oral bioavailability of NCE was estimated using the ratio of AUC values following i.g. and i.v. administration."}, "[3]": {"test": "Biopharmaceutics Classification System (BCS) classification", "conditions": "IDR below borderline value of 1 mg·min^−1·cm^−2", "from_the_text": "Targeted small-molecular inhibitors are promising antitumor candidates compared to the traditional chemotherapy drugs due to their high efficiency and low toxicity. Their common formulations are oral preparations with good compliance. The essential parameters controlling oral drug absorption are the permeability of the drug through the gastrointestinal (GI) membrane and the drug solubility/dissolution in GI milieu. Biopharmaceutics Classification System (BCS) is a modern tool to characterize drug permeability and solubility/dissolution [4, 5]. […] By using BCS system, some drug-drug interactions could be prevented and the in vivo bioavailability testing of the immediate release dosage forms of class I and III drugs could be bypassed. Up till now, there is rare systemic report about specific classification method according to BCS, especially for a novel drug candidate.\nAccording to the Food and Drug Administration (FDA) guidance for biowaiver request of immediate-release solid oral dosage forms, a drug substance is considered as high soluble when the highest dose strength is soluble in ≤250 mL of aqueous media over the pH range of 1.0–7.5 [7]. However, the choice of different dose has a great impact on the dose/solubility ratio and then affects the classification of drugs. […]"}, "[4]": {"system": "fibroblast growth factor receptor 2 (FGFR2)", "parameters": "method as in PMID 21691074", "conditions": "at a concentration of 10 μM; cited from earlier work"}, "[5]": {"test": "Intrinsic dissolution rate (IDR) measurement", "type": "physicochemical", "conditions": "phosphate buffer pH 6.8 with 1% SDS, 37 °C, 75 rpm, initial 4 h", "protocol": "A modified IDR measurement method was carried out. In brief, 50 mg NCE was compressed under an average compression force of 3.0 MPa for 1 min to make a non-disintegrating compact using a 5 mm die and punch. The surface area of the compact was 0.1963 cm^2. Compacts were placed in a molten beeswax-mold in a way that only one side could come in contact with the dissolution medium. Dissolution study was conducted employing USP II dissolution apparatus using 900 mL phosphate buffer (0.1 mol/mL, pH = 6.8) with 1% SDS (w/v) at 37 ± 1 °C. The paddle rotating speed was 75 rpm. Samples were collected every 30 min for a period of 8 h and analyzed by HPLC. Samples were tested in triplicates.\nTo evaluate the IDR of NCE, the cumulative amount dissolved per surface unit of the compact was plotted against time. The slope of the linear region (R^2 ≥ 0.95) was taken as the intrinsic dissolution rate. IDR was calculated by the following equation as described previously.\n(2) IDR=(dw/dt)(1/S)=DCs/h\nwhere IDR is the intrinsic dissolution rate (mg/min/cm^2); dw is the change in drug dissolved (mg); dt is the change in time (min); S is the surface area of the compact (cm^2); D is diffusion coefficient (cm^2/s); Cs is the solubility (mg/cm^3) and h is the stagnant layer thickness (cm)."}},
  "note": "Read-outs that look alike come from different tables or passages of the source.",
  "data": [
    {"smiles": "CNC(=O)c1cc(Oc2ccc(NC(=O)c3cccc(C(F)(F)F)c3)cc2)ccn1.Cc1ccc(S(=O)(=O)O)cc1.O", "note": "[NCE, 2-methylcarbamoyl-4-{4-[3-(trifluoromethyl)benzamido]phenoxy} pyridinium 4-methylbenzenesulfonate monohydrate]", "values": [
      {"measurement": "solubility", "setting": "[1]; phosphate buffer with 0.4% SDS", "value": 54.5, "unit": "µg/mL"},
      {"measurement": "solubility", "setting": "[1]; phosphate buffer with 1% SDS", "value": 132, "unit": "µg/mL"},
      {"measurement": "solubility", "setting": "[1]; phosphate buffer with 2% SDS", "value": 256, "unit": "µg/mL"},
      {"measurement": "i.v./i.g. AUC0−t ratio", "setting": "[2]; beagle dogs", "value": 4.19},
      {"measurement": "i.v./i.g. Cmax ratio", "setting": "[2]; beagle dogs", "value": "about 11.10"},
      {"measurement": "AUC(0-t)", "setting": "[2]; iv, Beagle 1", "value": 56200, "unit": "ng·h/mL"},
      {"measurement": "Cmax", "setting": "[2]; iv, Beagle 1", "value": 26000, "unit": "ng/mL"},
      {"measurement": "MRT", "setting": "[2]; iv, Beagle 1", "value": 1.84, "unit": "h"},
      {"measurement": "Tmax", "setting": "[2]; iv, Beagle 1", "value": 0.23, "unit": "h"},
      {"measurement": "half-life", "setting": "[2]; iv, Beagle 1", "value": 6.39, "unit": "h"},
      {"measurement": "AUC(0-t)", "setting": "[2]; iv, Beagle 2", "value": 34400, "unit": "ng·h/mL"},
      {"measurement": "Cmax", "setting": "[2]; iv, Beagle 2", "value": 23700, "unit": "ng/mL"},
      {"measurement": "MRT", "setting": "[2]; iv, Beagle 2", "value": 1.68, "unit": "h"},
      {"measurement": "Tmax", "setting": "[2]; iv, Beagle 2", "value": 0.3, "unit": "h"},
      {"measurement": "half-life", "setting": "[2]; iv, Beagle 2", "value": 3.56, "unit": "h"},
      {"measurement": "AUC(0-t)", "setting": "[2]; iv, Beagle3", "value": 25100, "unit": "ng·h/mL"},
      {"measurement": "Cmax", "setting": "[2]; iv, Beagle3", "value": 21600, "unit": "ng/mL"},
      {"measurement": "MRT", "setting": "[2]; iv, Beagle3", "value": 1.35, "unit": "h"},
      {"measurement": "Tmax", "setting": "[2]; iv, Beagle3", "value": 0.22, "unit": "h"},
      {"measurement": "half-life", "setting": "[2]; iv, Beagle3", "value": 9.23, "unit": "h"},
      {"measurement": "AUC(0-t)", "setting": "[2]; iv, mean ± SD, n = 3", "value": "38600 ± 16000", "unit": "ng·h/mL"},
      {"measurement": "Cmax", "setting": "[2]; iv, mean ± SD, n = 3", "value": "23800 ± 2230", "unit": "ng/mL"},
      {"measurement": "MRT", "setting": "[2]; iv, mean ± SD, n = 3", "value": "1.62 ± 0.25", "unit": "h"},
      {"measurement": "Tmax", "setting": "[2]; iv, mean ± SD, n = 3", "value": "0.25 ± 0.04", "unit": "h"},
      {"measurement": "half-life", "setting": "[2]; iv, mean ± SD, n = 3", "value": "6.39 ± 2.83", "unit": "h"},
      {"measurement": "AUC(0-t)", "setting": "[2]; po, i.g., Beagle 4", "value": 6860, "unit": "ng·h/mL"},
      {"measurement": "Cmax", "setting": "[2]; po, i.g., Beagle 4", "value": 3500, "unit": "ng/mL"},
      {"measurement": "MRT", "setting": "[2]; po, i.g., Beagle 4", "value": 10.8, "unit": "h"},
      {"measurement": "Tmax", "setting": "[2]; po, i.g., Beagle 4", "value": 2, "unit": "h"},
      {"measurement": "half-life", "setting": "[2]; po, i.g., Beagle 4", "value": 12.3, "unit": "h"},
      {"measurement": "bioavailability", "setting": "[2]; po, i.g., Beagle 4, read-out: F, absolute bioavailability", "value": 12.2, "unit": "%"},
      {"measurement": "AUC(0-t)", "setting": "[2]; po, i.g., Beagle 5", "value": 13600, "unit": "ng·h/mL"},
      {"measurement": "Cmax", "setting": "[2]; po, i.g., Beagle 5", "value": 860, "unit": "ng/mL"},
      {"measurement": "MRT", "setting": "[2]; po, i.g., Beagle 5", "value": 10.6, "unit": "h"},
      {"measurement": "Tmax", "setting": "[2]; po, i.g., Beagle 5", "value": 1.73, "unit": "h"},
      {"measurement": "half-life", "setting": "[2]; po, i.g., Beagle 5", "value": 17.3, "unit": "h"},
      {"measurement": "bioavailability", "setting": "[2]; po, i.g., Beagle 5, read-out: F, absolute bioavailability", "value": 39.6, "unit": "%"},
      {"measurement": "AUC(0-t)", "setting": "[2]; po, i.g., Beagle 6", "value": 7160, "unit": "ng·h/mL"},
      {"measurement": "Cmax", "setting": "[2]; po, i.g., Beagle 6", "value": 2060, "unit": "ng/mL"},
      {"measurement": "MRT", "setting": "[2]; po, i.g., Beagle 6", "value": 11.2, "unit": "h"},
      {"measurement": "Tmax", "setting": "[2]; po, i.g., Beagle 6", "value": 2, "unit": "h"},
      {"measurement": "half-life", "setting": "[2]; po, i.g., Beagle 6", "value": 14.9, "unit": "h"},
      {"measurement": "bioavailability", "setting": "[2]; po, i.g., Beagle 6, read-out: F, absolute bioavailability", "value": 28.5, "unit": "%"},
      {"measurement": "AUC(0-t)", "setting": "[2]; po, i.g., mean ± SD, n = 3", "value": "9210 ± 3820", "unit": "ng·h/mL"},
      {"measurement": "Cmax", "setting": "[2]; po, i.g., mean ± SD, n = 3", "value": "2140 ± 1320", "unit": "ng/mL"},
      {"measurement": "MRT", "setting": "[2]; po, i.g., mean ± SD, n = 3", "value": "10.8 ± 0.31", "unit": "h"},
      {"measurement": "Tmax", "setting": "[2]; po, i.g., mean ± SD, n = 3", "value": "1.91 ± 0.15", "unit": "h"},
      {"measurement": "half-life", "setting": "[2]; po, i.g., mean ± SD, n = 3", "value": "14.8 ± 2.53", "unit": "h"},
      {"measurement": "bioavailability", "setting": "[2]; po, i.g., mean ± SD, n = 3, read-out: F, absolute bioavailability", "value": "26.8 ± 13.8", "unit": "%"},
      {"measurement": "solubility class", "setting": "[3]", "value": "low solubility"},
      {"measurement": "inhibition rate", "setting": "[4]", "value": 65, "unit": "%"},
      {"measurement": "Intrinsic dissolution rate (IDR)", "setting": "[5]", "value": "1 × 10^−4 mg·min^−1·cm^−2"}
    ]}
  ]
}
